One assay addresses T1, hClpP (Homo sapiens, UniProt Q16740).
T1 construct: made in house
Put plainly: activating ClpP hydrolysis of FITC-casein (fluorescence kinetic detection). The format is biochemical. Conditions: hClpP 1 μM, FITC-Casein 4 μM, 37° C. The method, then: The specific procedures were as follows:
Test compounds were each prepared into a 100 mM stock solution in DMSO and stored. and 1 μL of stock solution of each of the compounds was taken and diluted to 10 mM by adding 9 μL of DMSO for later use.
The compounds of formula I of the present invention were each diluted at concentrations of 200 μM, 50 μM, 10 μM, 2 μM, 500 nM, 100 nM, 20 nM, and 2 nM in an assay buffer. 50 μL of each of the compounds at different concentrations was added to each well, with 2 replicate wells.
The protein was diluted to 4 μM in an assay buffer. 25 μL of protein was added to each well, and incubated at 37° C. for 30 min. The final concentration was 1 μM.
25 μL of FITC-Casein was added to each well. The final concentration was 4 μM. The mixture was immediately loaded on the machine for detection.
FITC-Casein and FITC-Casein+ClpP were used as negative controls.
The detection temperature was 37° C. The plate was shaken for 3 s. […] Kinetic parameters were set, and scanning was performed once every 1 min for 15 min.

The next assay deals with MV4; 11 cells. Put plainly: inhibiting the growth of MV4; 11 cells. Conditions: Homo sapiens. It is filed as cell-based.

Some results are limits rather than exact numbers.

T1 sequence (Q16740 57-277): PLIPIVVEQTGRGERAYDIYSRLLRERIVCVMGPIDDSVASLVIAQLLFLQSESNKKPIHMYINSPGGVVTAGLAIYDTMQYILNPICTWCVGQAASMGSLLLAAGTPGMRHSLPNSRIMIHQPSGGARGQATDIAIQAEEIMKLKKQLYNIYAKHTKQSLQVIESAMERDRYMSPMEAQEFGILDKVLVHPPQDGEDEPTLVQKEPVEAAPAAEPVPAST

Usually EC50 stands for the concentration needed to bring the measured effect to its halfway point. A higher EC50 goes with a need for much substance. By IC50 is commonly meant the concentration that inhibits the measured activity by half. A low value points to greater potency. `CCc1ccc(Cn2c(=O)c3c(c4cccnc42)CCN(Cc2ccccc2)C3)cc1` [Compound I-56, 3-benzyl-6-(4-ethylbenzyl)-2,3,4,6-tetrahydropyrido[3,4-c][1,8]naphthyridine-5-(1H)-one]: the EC50 at hClpP was less than 1 µM. In the assay on MV4; 11 cells, this molecule registered an IC50 of less than 1 µM.

Consider `Cc1ccccc1Cn1c(=O)c2c(c3cccnc31)CCN(Cc1ccccc1)C2` [Compound I-43, 3-benzyl-6-(2-methylbenzyl)-2,3,4,6-tetrahydropyrido[3,4-c][1,8]naphthyridine-5-(1H)-one], for which the EC50 at hClpP lay in the range of 1 to 10 µM. This molecule also gave an IC50 with MV4; 11 cells of less than 1 µM.

As for `Cc1cccc(CN2CCc3c(c(=O)n(Cc4ccc(F)cc4)c4nccn34)C2)c1` [Compound I-115, 7-(3-methylbenzyl)-4-(4-fluorobenzyl)-6,7,8,9-tetrahydroimidazo[1,2-a]pyrido[3,4-e]pyrimidine-5(4H)-one], at hClpP, the EC50 is less than 1 µM. The IC50 in the assay on MV4; 11 cells was less than 1 µM.

On to `CCc1ccccc1Cn1c(=O)c2c(c3cccnc31)CCN(Cc1ccccc1)C2` [Compound I-44, 3-benzyl-6-(2-ethylbenzyl)-2,3,4,6-tetrahydropyrido[3,4-c][1,8]naphthyridine-5-(1H)-one], for which the EC50 on hClpP is 1 to 10 µM. The molecule further registered an IC50 in the assay with MV4; 11 cells of less than 1 µM.

With `O=c1c2c(c3cccnc3n1Cc1ccc3c(c1)OCCO3)CCN(Cc1cccc(Cl)c1)C2` [Compound I-97, 3-(3-chlorobenzyl)-6-((2,3-dihydro[1,4]benzodioxin-6-yl)methyl)-2,3,4,6-tetrahydropyrido[3,4-c][1,8]naphthyridine-5(1H)-one], the EC50 on hClpP was in the range of 1 to 10 µM. The molecule also came in with an IC50 with MV4; 11 cells of 1 to 10 µM.

Consider `O=c1c2c(c3cccnc3n1Cc1ccccc1)CCN(CC1CC1)C2` [Compound I-1, 6-benzyl-3-(cyclopropylmethyl)-2,3,4,6-tetrahydropyrido[3,4-c][1,8]naphthyridine-5-(1H)-one], for which the concentration for a half-maximal effect (EC50) on hClpP was 10 to 100 µM. In the assay with MV4; 11 cells, this molecule came in with an IC50 of 1 to 10 µM.

`N#Cc1cccc(CN2CCc3c(c(=O)n(Cc4ccc(F)cc4)c4ncccc34)C2)c1` [Compound I-84, 6-(4-fluorobenzyl)-3-(3-cyanobenzyl)-2,3,4,6-tetrahydropyrido[3,4-c][1,8]naphthyridine-5-(1H)-one] gave a concentration for a half-maximal effect (EC50) on hClpP of less than 1 µM. The molecule also registered an IC50 with MV4; 11 cells of less than 1 µM.

`O=c1c2c(c3cccnc3n1Cc1ccccc1)CCN(Cc1cccc(F)c1)C2` [Compound I-12, 6-benzyl-3-(3-fluorobenzyl)-2,3,4,6-tetrahydropyrido[3,4-c][1,8]naphthyridine-5-(1H)-one]: at hClpP, the EC50 was less than 1 µM. This molecule gave an IC50 with MV4; 11 cells of less than 1 µM.

As to `Cn1nccc1Cn1c(=O)c2c(c3cccnc31)CCN(Cc1ccccc1)C2` [Compound I-59, 3-benzyl-6-((1-methyl-1H-pyrazol-5-yl)methyl)-2,3,4,6-tetrahydropyrido[3,4-c][1,8]naphthyridine-5-(1H)-one], at hClpP, the EC50 was in the range of 10 to 100 µM. The molecule also registered an IC50 with MV4; 11 cells of 1 to 10 µM.

Consider `N#Cc1cccc(CN2CCc3c(c(=O)n(Cc4ccc(Cl)cc4)c4ccnn34)C2)c1` [Compound I-163, 4-(4-chlorobenzyl)-7-(3-cyanobenzyl)-6,7,8,9-tetrahydropyrazolo[1,5-a]pyrido[3,4-e]pyrimidine-5(4H)-one], for which the EC50 at hClpP was in the range of 1 to 10 µM. In the assay with MV4; 11 cells, this molecule gave an IC50 of 1 to 10 µM.

As to `O=c1c2c(c3cccnc3n1Cc1ccccc1)CCN(Cc1ccccc1Br)C2` [Compound I-8, 6-benzyl-3-(2-bromobenzyl)-2,3,4,6-tetrahydropyrido[3,4-c][1,8]naphthyridine-5-(1H)-one], the EC50 on hClpP is 1 to 10 µM. The molecule also displayed an IC50 with MV4; 11 cells of less than 1 µM.

On to `O=c1c2c(c3cccnc3n1Cc1ccc(Cl)cc1)CCN(Cc1ccccc1)C2` [Compound I-53, 3-benzyl-6-(4-chlorobenzyl)-2,3,4,6-tetrahydropyrido[3,4-c][1,8]naphthyridine-5-(1H)-one], for which the 50% effective concentration (EC50) on hClpP was less than 1 µM. The same molecule showed an IC50 in the assay with MV4; 11 cells of less than 1 µM.

In the case of `COc1ccc(Cn2c(=O)c3c(n4ccnc24)CCN(Cc2cccc(Cl)c2)C3)cc1` [Compound I-144, 7-(3-chlorobenzyl)-4-(4-methoxybenzyl)-6,7,8,9-tetrahydroimidazo[1,2-a]pyrido[3,4-e]pyrimidine-5(4H)-one], the EC50 on hClpP was less than 1 µM. The same molecule had an IC50 in the assay with MV4; 11 cells of less than 1 µM.

`O=c1c2c(n3nccc3n1Cc1ccc(Cl)cc1)CCN(Cc1ccccc1)C2` [Compound I-161, 4-(4-chlorobenzyl)-7-benzyl-6,7,8,9-tetrahydropyrazolo[1,5-a]pyrido[3,4-e]pyrimidine-5(4H)-one] returned an EC50 on hClpP of 1 to 10 µM. Moreover, the IC50 in the assay with MV4; 11 cells is 1 to 10 µM.

For the molecule `CCc1ccc(Cn2c(=O)c3c(n4ccnc24)CCN(Cc2ccccc2)C3)cc1` [Compound I-137, 7-benzyl-4-(4-ethylbenzyl)-6,7,8,9-tetrahydroimidazo[1,2-a]pyrido[3,4-e]pyrimidine-5(4H)-one], on hClpP, the EC50 was less than 1 µM. This molecule yielded a concentration for half-maximal inhibition (IC50) in the assay with MV4; 11 cells of less than 1 µM.

On to `O=c1c2c(c3cccnc3n1Cc1ccccc1)CCN(Cc1ccccc1F)C2` [Compound I-6, 6-benzyl-3-(2-fluorobenzyl)-2,3,4,6-tetrahydropyrido[3,4-c][1,8]naphthyridine-5-(1H)-one], for which the EC50 on hClpP lay in the range of 1 to 10 µM. Besides, in the assay on MV4; 11 cells, the IC50 is less than 1 µM.

Regarding `Cc1ccc(Cn2c(=O)c3c(c4cccnc42)CCN(Cc2cccc(C#N)c2)C3)cc1` [Compound I-91, 6-(4-methylbenzyl)-3-(3-cyanobenzyl)-2,3,4,6-tetrahydropyrido[3,4-c][1,8]naphthyridine-5-(1H)-one], at hClpP, the EC50 is less than 1 µM. Also, the IC50 with MV4; 11 cells is less than 1 µM.

As to `CCc1ccc(Cn2c(=O)c3c(c4cccnc42)CCN(Cc2cccc(Cl)c2)C3)cc1` [Compound I-96, 6-(4-ethylbenzyl)-3-(3-chlorobenzyl)-2,3,4,6-tetrahydropyrido[3,4-c][1,8]naphthyridine-5-(1H)-one], the EC50 on hClpP was less than 1 µM. This molecule also displayed an IC50 in the assay on MV4; 11 cells of less than 1 µM.

`COc1ccccc1CN1CCc2c(c(=O)n(Cc3ccccc3)c3ncccc23)C1` [Compound I-11, 6-benzyl-3-(2-methoxybenzyl)-2,3,4,6-tetrahydropyrido[3,4-c][1,8]naphthyridine-5-(1H)-one]: on hClpP, the 50% effective concentration (EC50) lay within 1 to 10 µM. This molecule displayed an IC50 in the assay on MV4; 11 cells of less than 1 µM.

`O=c1c2c(c3cccnc3n1Cc1ccc(Br)cc1)CCN(Cc1ccccc1)C2` [Compound I-54, 3-benzyl-6-(4-bromobenzyl)-2,3,4,6-tetrahydropyrido[3,4-c][1,8]naphthyridine-5-(1H)-one]: the EC50 on hClpP is less than 1 µM. In addition, the IC50 with MV4; 11 cells is less than 1 µM.

`O=c1c2c(c3cccnc3n1Cc1ccc(Cl)cc1)CCN(Cc1cccc(Br)c1)C2` [Compound I-76, 3-(3-bromobenzyl)-6-(4-chlorobenzyl)-2,3,4,6-tetrahydropyrido[3,4-c][1,8]naphthyridine-5-(1H)-one]: the EC50 on hClpP was less than 1 µM. Moreover, the half-maximal inhibitory concentration (IC50) in the assay on MV4; 11 cells was less than 1 µM.

In turn, `O=c1c2c(n3nccc3n1Cc1ccc(C(F)(F)F)cc1)CCN(Cc1ccccc1)C2` [Compound I-159, 4-(4-trifluoromethylbenzyl)-7-benzyl-6,7,8,9-tetrahydropyrazolo[1,5-a]pyrido[3,4-e]pyrimidine-5(4H)-one] gave an EC50 at hClpP of 1 to 10 µM. In addition, the IC50 in the assay on MV4; 11 cells lay within 1 to 10 µM.

The molecule `O=c1c2c(c3cccnc3n1Cc1ccc(Cl)cc1)CCN(Cc1cccc(Cl)c1)C2` [Compound I-75, 3-(3-chlorobenzyl)-6-(4-chlorobenzyl)-2,3,4,6-tetrahydropyrido[3,4-c][1,8]naphthyridine-5-(1H)-one] had a concentration giving a half-maximal response (EC50) on hClpP of less than 1 µM. Further, the IC50 in the assay on MV4; 11 cells was less than 1 µM.

The molecule `Cc1ccc(Cn2c(=O)c3c(n4ccnc24)CCN(Cc2cccc(C#N)c2)C3)cc1` [Compound I-136, 7-(3-cyanobenzyl)-4-(4-methylbenzyl)-6,7,8,9-tetrahydroimidazo[1,2-a]pyrido[3,4-e]pyrimidine-5(4H)-one] registered an EC50 on hClpP of less than 1 µM. In the assay with MV4; 11 cells, this molecule came in with an IC50 of less than 1 µM.

For the molecule `N#Cc1cccc(CN2CCc3c(c(=O)n(Cc4ccc5c(c4)OCO5)c4ncccc34)C2)c1` [Compound I-98, 6-([1,3]benzodioxol-5-ylmethyl)-3-(3-cyanobenzyl)-2,3,4,6-tetrahydropyrido[3,4-c][1,8]naphthyridine-5-(1H)-one], the EC50 at hClpP is 1 to 10 µM. For the same molecule, the IC50 in the assay on MV4; 11 cells fell in the range of 1 to 10 µM.

In the case of `O=c1c2c(c3cccnc3n1Cc1ccccc1)CCN(Cc1ccccc1Cl)C2` [Compound I-7, 6-benzyl-3-(2-chlorobenzyl)-2,3,4,6-tetrahydropyrido[3,4-c][1,8]naphthyridine-5-(1H)-one], on hClpP, the EC50 is 1 to 10 µM. In the assay on MV4; 11 cells, the IC50 is less than 1 µM.

Take `CCc1ccc(Cn2c(=O)c3c(n4ccnc24)CCN(Cc2cccc(Cl)c2)C3)cc1` [Compound I-139, 7-(3-chlorobenzyl)-4-(4-ethylbenzyl)-6,7,8,9-tetrahydroimidazo[1,2-a]pyrido[3,4-e]pyrimidine-5(4H)-one]: the EC50 on hClpP was less than 1 µM. The same molecule came in with an IC50 in the assay with MV4; 11 cells of less than 1 µM.

On hClpP, `O=c1c2c(c3cccnc3n1Cc1ccc(F)cc1)CCN(Cc1cccc(Cl)c1)C2` [Compound I-72, 3-(3-chlorobenzyl)-6-(4-fluorobenzyl)-2,3,4,6-tetrahydropyrido[3,4-c][1,8]naphthyridine-5-(1H)-one] gave an EC50 of less than 1 µM. In the assay on MV4; 11 cells, the IC50 is less than 1 µM.

In turn, `CCc1ccc(Cn2c(=O)c3c(c4cccnc42)CCN(Cc2cccc(F)c2)C3)cc1` [Compound I-95, 6-(4-ethylbenzyl)-3-(3-fluorobenzyl)-2,3,4,6-tetrahydropyrido[3,4-c][1,8]naphthyridine-5-(1H)-one] registered an EC50 at hClpP of less than 1 µM. For the same molecule, in the assay on MV4; 11 cells, the IC50 was less than 1 µM.

Source of the values: patent US20240327408A1, “COMPOUNDS CONTAINING TETRAHYDRONAPHTHYRIDINONE OR TETRAHYDROPYRIDOPYRIMIDINONE SKELETON, PREPARATION METHOD THEREFOR AND PHARMACEUTICAL USE THEREOF” (CHINA PHARMACEUTICAL UNIVERSITY, priority 2021, published 2024).
